This is an account of results in patent US8940893B2, “Heteroaromatic compounds as BTK inhibitors” (Boehringer Ingelheim International GmbH, priority 2013, dated 2015).

The target of the test is full-length human His-tagged BTK (Homo sapiens (Human), UniProt Q06187). The test is described as follows: BTK HTRF assay (Cisbio KinEASE-TK). The class given is biochemical. The settings on record: 6 nM BTK, 15 min preincubation at 28° C., 30 uM ATP. The procedure:
BTK Assay An HTRF assay (Cisbio KinEASE-TK cat #62TKOPEC) was performed to quantitate the ability of test compounds to inhibit BTK mediated phosphorylation of substrate. […] Then, 1 uM of TK substrate-biotin and 30 uM ATP were added and incubated for an additional 30 minutes at 28° C. Phospohrylation was detected by adding 62.5 nM Streptavidin-XL665 and TK-Antibody Cryptate diluted 1:100 in HTRF detection buffer (Cisbio cat #62SDBRDF) and incubated for 60 minutes at RT. The plate was read on an Envision plate reader and the fluoresence is measured at 620 nm (cryptate) and 665 nm (XL665). A ratio is calculated (665/620) and converted to POC relative to control and blank wells. Assay Buffer: […]
In general terms: Time-resolved FRET reads energy transfer from a long-lived donor to a nearby acceptor.

Chain of full-length human His-tagged BTK (Q06187 whole entry): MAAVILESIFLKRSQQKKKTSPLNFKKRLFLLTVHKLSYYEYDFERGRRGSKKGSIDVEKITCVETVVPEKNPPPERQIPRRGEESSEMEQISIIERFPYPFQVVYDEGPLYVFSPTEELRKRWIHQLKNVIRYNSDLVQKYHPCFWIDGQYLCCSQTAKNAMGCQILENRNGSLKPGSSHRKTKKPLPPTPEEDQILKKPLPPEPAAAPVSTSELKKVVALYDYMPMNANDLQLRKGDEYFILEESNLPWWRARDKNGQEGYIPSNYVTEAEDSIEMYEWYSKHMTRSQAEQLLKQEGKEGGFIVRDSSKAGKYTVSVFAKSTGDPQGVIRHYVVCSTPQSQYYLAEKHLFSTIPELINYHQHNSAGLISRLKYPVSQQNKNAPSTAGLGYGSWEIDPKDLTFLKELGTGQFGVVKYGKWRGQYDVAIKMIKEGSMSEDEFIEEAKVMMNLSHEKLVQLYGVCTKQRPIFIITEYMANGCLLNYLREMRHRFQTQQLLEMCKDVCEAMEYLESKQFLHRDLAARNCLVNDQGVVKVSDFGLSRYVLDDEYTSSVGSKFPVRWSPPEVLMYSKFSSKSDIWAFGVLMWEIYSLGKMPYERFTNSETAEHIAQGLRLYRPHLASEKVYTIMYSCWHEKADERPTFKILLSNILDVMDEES

By IC50 is commonly meant the concentration needed to halve the response being measured. Higher therefore signals weaker potency in that assay. As to `C=CC(=O)N1CC2(CC(n3nc(-c4ccc(Oc5ccccc5)nc4)c4c(N)ncnc43)C2)C1` [Example 8], the half-maximal inhibitory concentration (IC50) was 2.4 nM. As for `CC#CC(=O)N1CC2(CC(n3nc(-c4ccc(Oc5ccccc5)cc4)c4c(N)ncnc43)C2)C1` [Example 3], the 50% inhibitory concentration (IC50) came to 0.83 nM. `CC#CC(=O)N1CC2(CC(n3nc(-c4ccc(Oc5ccccc5)nc4)c4c(N)ncnc43)C2)C1` [Example 7] registered an IC50 of 1.1 nM. The same measure for `CN(C)C/C=C/C(=O)N1CC[C@]2(C1)C[C@H](n1nc(-c3ccc(Oc4ccccc4)cn3)c3c(N)ncnc31)C2` [Example 17]: 7.1 nM; for `C=CC(=O)N1CC2(CC(n3nc(-c4ccc(-c5cnc(Cc6ccccc6)n(C)c5=O)cc4F)c4c(N)ncnc43)C2)C1` [Example 6]: 0.85 nM; for `CN(C)C/C=C/C(=O)N1CC2(CC(n3nc(-c4ccc(Oc5ccccc5)cn4)c4c(N)ncnc43)C2)C1` [Example 15]: 32 nM. The result for `C=CC(=O)N1CC2(CC(n3nc(-c4ccc(Oc5ccccc5)cc4)c4c(N)ncnc43)C2)C1` [Example 1] reads 1 nM.

As for `C/C=C/C(=O)N1CC2(CC(n3nc(-c4ccc(Oc5ccccc5)nc4)c4c(N)ncnc43)C2)C1` [Example 9], the concentration for half-maximal inhibition (IC50) amounted to 83 nM. `Nc1ncnc2c1c(-c1ccc(Oc3ccccc3)cc1)nn2C1CC2(C1)CN(C(=O)C1CO1)C2` (stereo not shown) [Example 4] yielded a half-inhibitory concentration (IC50) of 13 nM. The same measure for `CN(C)C/C=C/C(=O)N1CC2(CC(n3nc(-c4ccc(Oc5ccccc5)cc4)c4c(N)ncnc43)C2)C1` [Example 2]: 1.8 nM. As for `CN(C)C/C=C/C(=O)N1CC[C@]2(C1)C[C@@H](n1nc(-c3ccc(Oc4ccccc4)cn3)c3c(N)ncnc31)C2` [Example 16], the half-maximal inhibitory concentration (IC50) was 8.1 nM. The same measure for `C=CC(=O)N1CCC2(CC(n3nc(-c4ccc(Oc5ccccc5)cc4)c4c(N)ncnc43)C2)C1` (stereo not shown) [Example 5]: 0.87 nM. In the case of `CC#CC(=O)N1CC[C@]2(C1)C[C@@H](n1nc(-c3ccc(Oc4ccccc4)cn3)c3c(N)ncnc31)C2` [Example 13], half-maximal inhibition (IC50) required 0.74 nM.
